Target: T1, telomerase (Homo sapiens, UniProt O14746)
T1 construct: endogenous in cells; host or cells: CCL137 normal human fibroblast cell line (ATCC)
Test: Telomerase activity by PCR-ELISA (TRAP) in normal human fibroblasts
Type: cell-based
Settings: CCL137 normal human fibroblasts, X ± S, N = 9
Description: • Telomerase Activity Assay Kit (Roche, Switzerland); • CCL137 human fibroblast cell lines (American Type Culture Collection (ATCC)); • Ginseng-Astragalus membranaceus extract: the extract prepared in Example 1 of the present invention; • Astragalus membranaceus extract: the Astragalus membranaceus extract prepared in Example 3 of the present invention; • Ginseng extract: the ginseng extract prepared in Example 2 of the present invention. Method The effects of different extracts on the telomerase activity were detected by PCR-ELISA. Principle: This method is based on establishment of Telomeric Repeat Amplification Protocol (TRAP), which is used for PCR Amplification of telomerase mediated derivatives and combined with the subsequent ELISA method. […]
For the sample of each group, to the EP tube, 20 μl of the denaturing reagent were added and marked, and 5 μl of the obtained product after the PCR amplification was added. […] The absorbance value is then detected at 450 nm using the microplate reader and A690 nm was taken as a reference, and the value of the negative control will be subtracted from the absorption value for the sample of each group. […]
The test results were analyzed and processed by a SPSS18.0 statistical software. […]
The test methods and procedures for detection of the telomerase activity were the same as the Test Example 1, and the measured results were shown in Table 5.

T1 sequence (O14746 whole entry): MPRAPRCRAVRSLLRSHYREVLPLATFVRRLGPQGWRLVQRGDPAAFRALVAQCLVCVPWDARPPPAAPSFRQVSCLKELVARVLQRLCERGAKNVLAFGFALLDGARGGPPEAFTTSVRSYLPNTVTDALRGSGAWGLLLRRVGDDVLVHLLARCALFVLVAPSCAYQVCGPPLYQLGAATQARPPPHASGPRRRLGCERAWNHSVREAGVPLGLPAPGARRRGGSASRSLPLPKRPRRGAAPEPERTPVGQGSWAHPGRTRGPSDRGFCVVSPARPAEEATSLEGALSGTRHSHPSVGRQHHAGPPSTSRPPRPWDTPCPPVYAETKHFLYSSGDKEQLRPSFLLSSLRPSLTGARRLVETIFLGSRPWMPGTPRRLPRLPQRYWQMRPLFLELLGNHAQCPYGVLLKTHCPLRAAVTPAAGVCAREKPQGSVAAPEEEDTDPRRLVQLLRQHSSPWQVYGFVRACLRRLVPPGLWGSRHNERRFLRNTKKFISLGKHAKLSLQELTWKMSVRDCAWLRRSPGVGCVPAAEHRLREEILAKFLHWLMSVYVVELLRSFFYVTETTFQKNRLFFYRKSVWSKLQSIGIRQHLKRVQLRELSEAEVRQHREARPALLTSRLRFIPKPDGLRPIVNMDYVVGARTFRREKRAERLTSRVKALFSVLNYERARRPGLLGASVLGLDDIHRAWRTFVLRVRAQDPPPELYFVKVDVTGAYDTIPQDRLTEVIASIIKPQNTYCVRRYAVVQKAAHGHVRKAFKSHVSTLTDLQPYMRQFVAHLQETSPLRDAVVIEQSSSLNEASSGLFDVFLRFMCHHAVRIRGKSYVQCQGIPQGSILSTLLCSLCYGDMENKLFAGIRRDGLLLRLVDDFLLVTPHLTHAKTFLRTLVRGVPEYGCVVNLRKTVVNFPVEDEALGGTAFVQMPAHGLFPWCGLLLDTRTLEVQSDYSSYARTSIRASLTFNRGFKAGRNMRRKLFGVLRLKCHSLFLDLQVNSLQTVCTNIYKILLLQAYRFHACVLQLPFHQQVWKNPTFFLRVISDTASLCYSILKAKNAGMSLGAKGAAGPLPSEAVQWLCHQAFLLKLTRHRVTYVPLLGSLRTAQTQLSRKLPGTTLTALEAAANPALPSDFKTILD

Astragaloside
Telomerase activity (ΔA) (Table 5, high concentration group, extract concentration 100 ug/mL): 0.436
Telomerase activity (ΔA) (Table 5, medium concentration group, extract concentration 50 ug/mL): 0.453

— patent publication US12285454B2, “Anti-aging chinese herb extract, extraction method and use thereof” (HEALTH LIFE BIOSCIENCES INC, priority 2019, dated 2025)
